{
  "source": "patent US20130273003A1",
  "about": "“Therapies for Treating Hepatitis C Virus Infection” (priority 2012, published 2013)",
  "key": {"genotype 1 HCV": {"tested_on": "genotype 1 HCV", "assay": "ADVANCE trial: SVR rates, overall and by IL28B genotype", "type": "in vivo, Hepatitis C virus", "settings": "for SVR rate: overall (full analysis population)", "description": "IL28B genotype was determined in de-identified left-over specimens available from treatment-naïve genotype 1 HCV patients from ADVANCE U.S. sites. Due to the requirements of the de-identification procedure, only samples from Caucasian patients were tested. A series of associated clinical data was retained with the de-identified samples: HCV genotype, prior treatment response, assigned study arm, study completion, RVR, SVR, baseline viral load, EVR, undetectable at EOT.\nIL28B genotyping was performed using 100 ng DNA from whole blood or peripheral blood mononuclear cell preparations with TaqMan® PCR, rs12979860 (ABI)"}, "HCV": {"tested_on": "HCV", "assay": "REALIZE trial: SVR by IL28B genotype in Peg-IFN/RBV experienced patients", "type": "in vivo, Hepatitis C virus", "settings": "TVR 750 mg every 8 hours in combination with Peg-IFN/RBV, treatment-experienced patients", "description": "This exploratory sub-analysis evaluated virologic response by IL28B genotype (rs12979860) in the Phase III TVR REALIZE trial. REALIZE is an international, multicentre, randomized, double-blind, placebo-controlled trial in Peg-IFN/RBV experienced patients; including prior relapsers, prior partial responders and prior null responders. Patients were included in this sub-analysis if they had consented to genetic testing.\nFIG. 1 is a graphic depiction of the REALIZE study design. Drugs were administered in the following dosages: Peg-IFN alfa-2a=180 μg/week; RBV=1000-1200 mg/day; TVR=750 mg every 8 hours; Pbo=placebo. Overall, 527/662 (80%) patients enrolled in REALIZE consented to genetic testing; Data from T12/PR48 and T12(DS)/PR48 arms were pooled since no differences were observed between TVR arms. Randomization was stratified by viral load and prior response. Stopping rules were applied for TVR (Weeks 4, 6, and 8) and Peg-IFN/RBV (Weeks 12, 24, and 36)."}, "[1]": {"tested_on": "hepatitis C virus (HCV) replicon", "assay": "HCV Replicon Cell Assay", "type": "cell-based", "description": "Cells containing hepatitis C virus (HCV) replicon were maintained in DMEM containing 10% fetal bovine serum (FBS), 0.25 mg per ml of G418, with appropriate supplements (media A).\nOn day 1, replicon cell monolayer was treated with a trypsin:EDTA mixture, removed, and then media A was diluted into a final concentration of 100,000 cells per ml wit. 10,000 cells in 100 μl were plated into each well of a 96-well tissue culture plate, and cultured overnight in a tissue culture incubator at 37° C.\nOn day 2, compounds (in 100% DMSO) were serially diluted into DMEM containing 2% FBS, 0.5% DMSO, with appropriate supplements (media B). The final concentration of DMSO was maintained at 0.5% throughout the dilution series.\nMedia on the replicon cell monolayer was removed, and then media B containing various concentrations of compounds was added. […]\nA Taqman real-time RT-PCR quantification assay was set up with two sets of specific primers and probe. […] Total RNA extractants from treated HCV replicon cells was added to the PCR reactions for quantification of both HCV and BVDV RNA in the same PCR well. […] The level of HCV RNA in each well was calculated according to a standard curve run in the same PCR plate. The percentage of inhibition or decrease of HCV RNA level due to compound treatment was calculated using the DMSO or no compound control as 0% of inhibition. […]"}},
  "data": [
    {"smiles": "CCC[C@H](NC(=O)[C@@H]1[C@H]2CCC[C@H]2CN1C(=O)[C@@H](NC(=O)[C@@H](NC(=O)c1cnccn1)C1CCCCC1)C(C)(C)C)C(=O)C(=O)NC1CC1", "note": "[VX-950]", "values": [
      {"measurement": "SVR rate", "setting": "genotype 1 HCV; T8PR arm", "result": 69, "unit": "%"},
      {"measurement": "SVR rate", "setting": "genotype 1 HCV; T12PR arm", "result": 75, "unit": "%"},
      {"measurement": "SVR", "setting": "genotype 1 HCV; T12PR, IL28B CC", "result": 90, "unit": "%"},
      {"measurement": "patients receiving 24 weeks of total therapy", "setting": "genotype 1 HCV; T12PR, IL28B CC", "result": 78, "unit": "%"},
      {"measurement": "SVR", "setting": "genotype 1 HCV; T12PR, IL28B CT", "result": 71, "unit": "%"},
      {"measurement": "SVR", "setting": "genotype 1 HCV; T12PR, IL28B TT", "result": 73, "unit": "%"},
      {"measurement": "RVR and eRVR rates compared to peginterferon alfa-2a/ribavirin alone", "setting": "genotype 1 HCV; telaprevir-based regimen", "result": "improved RVR and eRVR rates across all IL28B genotypes"},
      {"measurement": "achieved SVR", "setting": "genotype 1 HCV; telaprevir-based regimen, eRVR, IL28B CC", "result": 97, "unit": "%"},
      {"measurement": "achieved SVR", "setting": "genotype 1 HCV; telaprevir-based regimen, eRVR, IL28B CT", "result": 88, "unit": "%"},
      {"measurement": "achieved SVR", "setting": "genotype 1 HCV; telaprevir-based regimen, eRVR, IL28B TT", "result": 85, "unit": "%"},
      {"measurement": "achieved SVR", "setting": "genotype 1 HCV; telaprevir-based regimen, no eRVR, IL28B CC", "result": 63, "unit": "%"},
      {"measurement": "achieved SVR", "setting": "genotype 1 HCV; telaprevir-based regimen, no eRVR, IL28B CT", "result": 33, "unit": "%"},
      {"measurement": "achieved SVR", "setting": "genotype 1 HCV; telaprevir-based regimen, no eRVR, IL28B TT", "result": 46, "unit": "%"},
      {"measurement": "achieved SVR", "setting": "genotype 1 HCV; telaprevir-based regimen, patients who did not have eRVR (48 weeks of therapy)", "result": 43, "unit": "%"},
      {"measurement": "achieved SVR", "setting": "genotype 1 HCV; telaprevir-based regimen, patients who had eRVR (24 weeks of therapy)", "result": 91, "unit": "%"},
      {"measurement": "SVR rates versus Peg-IFN/RBV alone", "setting": "HCV", "result": "increased SVR rates across all IL28B genotypes"},
      {"measurement": "activity in the replicon assay", "setting": "[1]", "result": "significant activity"}
    ]}
  ]
}
